# Results published in publication PMC8044163, “Vitamin D and lumisterol derivatives can act on liver X receptors (LXRs)” (Scientific Reports, 2021).
# What was measured:
# LBD of LXRα = target: T1, LBD of LXRα (Homo sapiens, UniProt Q13133); test: LanthaScreen TR-FRET LXRα coactivator assay (LXR binding assay); type: biochemical; conditions: agonist; average values; read-out: LXRα EC50
# T1 construct: after addition of LXRα/β-LBD to the derivatives; purchased Thermo Fisher Scientific
# T1 sequence (Q13133 209-447 limits assumed): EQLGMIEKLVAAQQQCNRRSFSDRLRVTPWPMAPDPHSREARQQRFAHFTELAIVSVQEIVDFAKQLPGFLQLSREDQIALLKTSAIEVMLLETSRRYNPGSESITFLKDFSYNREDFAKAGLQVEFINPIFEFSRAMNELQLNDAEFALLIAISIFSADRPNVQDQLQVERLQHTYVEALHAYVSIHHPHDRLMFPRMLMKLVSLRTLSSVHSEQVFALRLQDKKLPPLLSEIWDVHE
# Protocol: (§1) Binding assays of graded concentrations of vitamin D3 or lumisterol hydroxyderivatives to LXRα/β were performed using the LanthaScreen TR-FRET LXRα/β Coactivator kit (Thermo Fisher Scientific, Inc., Waltham, MA) following the manufacture’s protocol. Briefly, after addition of LXRα/β-LBD to the derivatives, a mixture of peptide (Fluorescein-TRAP220/DRIP-2 for LXRα or Fluorescein-D22 for LXRβ) and antibody (Tb-anti-GST) was added to the reaction followed by incubation in room temperature for 2 h. TR-FRET ratio was calculated by dividing the emission at 520 nm by the emission at 495 nm using Synergy neo2 (BioTek, Winooski, VT).
# LBD of LXRβ = target: T2, LBD of LXRβ (Homo sapiens, UniProt P55055); test: LanthaScreen TR-FRET LXRβ coactivator assay (LXR binding assay); type: biochemical; conditions: agonist; average values; read-out: LXRβ EC50
# T2 construct: purchased Thermo Fisher Scientific
# T2 sequence (P55055 222-460 limits assumed): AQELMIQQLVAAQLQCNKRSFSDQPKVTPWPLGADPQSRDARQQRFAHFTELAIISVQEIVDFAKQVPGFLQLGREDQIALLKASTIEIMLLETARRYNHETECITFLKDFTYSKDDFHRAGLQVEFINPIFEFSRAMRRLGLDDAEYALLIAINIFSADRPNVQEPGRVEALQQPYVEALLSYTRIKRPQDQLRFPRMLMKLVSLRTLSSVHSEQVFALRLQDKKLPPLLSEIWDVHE
# Protocol: as §1
# [1] = test system: LXR-response element (LXRE)-driven reporter in CHO cells; test: LXRE-driven luciferase reporter assay in CHO cells; type: cell-based; conditions: 10^–7 M, CHO cells
# Protocol: The effects of vitamin D3 and L3 hydroxyderivatives were tested on the LXRE transcriptional activity using pGreenFire1-LXRE-in-ApoE Lentivirus (System Biosciences, Palo Alto, CA). This plasmid was transduced in CHO and HaCaT cells following the manufacture’s protocol and the cells used as a stable LXRE expressed tool. Briefly, the virus was transduced into the cells using TransDux MAX Lentivirus Transduction Enhancer (System Biosciences, Palo Alto, CA) and screened to select the transduced cells using puromycin. The transduced cells were treated with the compounds for 24 h in media containing 5% cFBS (charcoal-treated fetal bovine serum) and the luminescence was read by ONE-Glo Luciferase Assay System (Promega, Madison, WI) using Cytation 5 (BioTek, Winooski, VT).
# ABCA1 = test: qPCR of ABCA1 in HaCaT keratinocytes; type: cell-based, human; conditions: 10^–7 M
# Protocol: HaCaT keratinocytes were cultured as described previously. For RNA isolation the cells were maintained in TPP tissue culture petri dishes (Ø60 mm, 22.1 cm^2) in DMEM containing 10% cFBC to reach semi-confluence and then exposed to 10^–7 M compounds or a corresponding concentration of ethanol solvent.
# RNA isolated from either fibroblasts, HaCaT cells or brain was submitted for cDNA synthesis (High Capacity cDNA Reverse Transcription Kit with RNase Inhibitor, Applied Biosystems) following the manufacturers’ protocols. RT-PCR was carried out using Cyber green, in triplicates; as previously described. Approximately, 750 ng of cDNA was used for PCR reactions. GAPDH and CIC-B were used as internal controls. Primer sequences are listed in Supplementary Table 27. Data were analyzed using GraphPad Prism statistical software one way ANOVA or t-test, where appropriate; *p < 0.05; **p < 0.01; ***p < 0.001.
# LXRα = target: T3, LXRα (Homo sapiens, UniProt Q13133); test: Ligand induced translocation of LXRα to the nucleus, immunofluorescence in HaCaT; type: cell-based; conditions: 10^−7 M, 24 h
# T3 construct: endogenous in cells; host or cells: HaCaT keratinocytes
# T3 sequence (Q13133 1-447): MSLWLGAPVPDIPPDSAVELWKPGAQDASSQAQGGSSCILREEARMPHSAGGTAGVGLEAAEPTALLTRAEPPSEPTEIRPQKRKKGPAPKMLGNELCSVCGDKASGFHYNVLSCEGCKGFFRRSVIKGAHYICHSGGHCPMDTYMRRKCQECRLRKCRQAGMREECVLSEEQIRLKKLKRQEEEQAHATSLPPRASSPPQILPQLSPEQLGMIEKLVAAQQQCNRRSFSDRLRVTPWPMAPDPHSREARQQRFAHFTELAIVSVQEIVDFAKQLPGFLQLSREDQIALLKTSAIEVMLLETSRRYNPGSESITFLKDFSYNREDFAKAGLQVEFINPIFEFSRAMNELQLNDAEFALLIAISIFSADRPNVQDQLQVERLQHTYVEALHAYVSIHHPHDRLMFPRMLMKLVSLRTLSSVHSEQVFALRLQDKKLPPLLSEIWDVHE
# Protocol: (§2) HaCaT cells were plated in DMEM plus 5% cFBS either on a sterile glass cover slip placed in a well of a 6-well plates for immunofluorescence (IF) assays or TPP Petri dishes for image-stream flow cytometry, and treated with 10^–7 M D3- or L3-hydroxyderivatives or 0.1% ethanol (vehicle) as a negative control was added to each well, and the cells were incubated for 12 or 24 h at 37 °C with 5% CO2. For IF the cells were fixed in 4% paraformaldehyde for 15 min, incubated in 0.5% Triton X-100 in phosphate-buffered saline (PBS) for 5 min, and washed 3 times in PBS. After blocking with 2% bovine serum albumin (BSA) in PBS for 1 h at room temperature, the cells were treated with an anti-LXRα antibody (Novus Biologicals, LLC, Centennial, CO) at 1:200 in PBS supplemented with 2% BSA overnight in 4 °C. After washing the slides were incubated with a mouse anti-rabbit IgG-FITC (Santa Cruz Biotechnology, Inc, Dallas, TX) at 1:200 dilution for 1.5 h at 37 °C. After washing the slides were mounted using propidium iodide (PI) (Vector Labs, Burlingame, California) as a nuclear counterstain. The slides were examined using a KEYENCE America BZ-X710 Fluorescence Microscope (Itasca, IL). The images were subsequently analyzed using the JACoP plugin for colocalization analysis with ImageJ[74]. Five separate high-power field (40×) images were converted to grayscale and analyzed for each condition. Manders’ coefficient (M1), calculated using a preset threshold, was used to quantify the degree of colocalization between PI and LXRα with 0 representing no colocalization, and 1 representing perfect colocalization.
# LXRα/β = test: Ligand induced translocation of LXRα/β to the nucleus, imaging flow cytometry in HaCaT; type: cell-based, human; conditions: 10^–7 M, 12 h
# Protocol: as §2
# For Image Stream II (Amnis, Seattle, WA, USA) cytometer analyses, HaCaT cells were detached and processed as previously described. The cells were fixed with paraformaldehyde and permeabilized in methanol containing buffer[78],[79] and Hoechst stain (r37165, ThermoFisher) and rabbit antibodies to LXRα/β (sc 377260, AF 647, SantaCruz) or VDR (sc-13133, AF 488, SantaCruz) as described previously. Data were analyzed using IDEAS software (Amnis, Seattle, WA, USA).
# VDR = target: T4, VDR (Homo sapiens, UniProt P11473); test: Translocation of VDR to the nucleus, imaging flow cytometry in HaCaT; type: cell-based; conditions: 10^–7 M, 12 h
# T4 construct: endogenous in cells; host or cells: HaCaT keratinocytes
# T4 sequence (P11473 1-427): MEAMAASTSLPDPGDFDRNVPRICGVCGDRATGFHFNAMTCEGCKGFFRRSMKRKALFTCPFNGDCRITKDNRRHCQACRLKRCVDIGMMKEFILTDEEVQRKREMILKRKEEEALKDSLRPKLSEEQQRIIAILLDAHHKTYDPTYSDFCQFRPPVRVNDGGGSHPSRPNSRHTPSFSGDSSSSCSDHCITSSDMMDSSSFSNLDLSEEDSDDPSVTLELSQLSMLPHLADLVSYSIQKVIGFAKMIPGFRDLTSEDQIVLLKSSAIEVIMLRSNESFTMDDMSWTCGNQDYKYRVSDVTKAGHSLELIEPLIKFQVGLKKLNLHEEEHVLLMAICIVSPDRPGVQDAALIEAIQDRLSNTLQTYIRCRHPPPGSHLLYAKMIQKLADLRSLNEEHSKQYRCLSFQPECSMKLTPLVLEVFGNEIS
SMILES,EC50 (LBD of LXRα) [µM],EC50 (LBD of LXRβ) [µM],LXRE luciferase (transcriptional) activity [1],ABCA1 RNA expression (qPCR) (ABCA1),"translocation of LXRα to the nucleus (immunofluorescence, Manders' coefficient) (LXRα)",translocation of LXRα/β from the cytoplasm to the nucleus (LXRα/β),translocation of VDR from the cytoplasm to the nucleus (VDR)
"C=C1CCC(O)CC1=CC=C1CCCC2(C)C1CCC2(O)C(C)O (stereo not drawn) [17,20(OH)2pD]",30,2.6,weakest stimulant,,,,
"C=C1CC[C@H](O)C/C1=C/C=C1\CCC[C@]2(C)[C@@H]([C@H](C)CCCC(C)(C)O)CC[C@@H]12 [25(OH)D3, reference compound]",0.011,3.8,,stimulation,induced translocation,increased translocation,increased translocation
